Patent publication EP0106988A1, “Pharmacologically active lactam derivatives” (THE WELLCOME FOUNDATION LIMITED, priority 1982, dated 1984)

Tests used:
Type in all cases: in vivo
rat [1] = experiment: Carrageenin pleurisy assay (CPA), acute anti-inflammatory activity; settings: dose required to reduce the 3 hour exudate volume by 50%
Protocol: Following the procedure described by Vinegar et al. in Proc.Soc.Exp.Biol.Med. 151, 556, (1976), the actue anti-inflammatory activityof compounds of formula (I) was compared with that of known anti-inflammatory drugs in the rat. The average 3 hour exudate volume for each drug treated group was determined and the % inhibition relative to solvent-fed control animals calculated, the ED50 being the dose required to reduce the 3 hour exudate volume by 50%.

[2] = Modified trypsin hyperalgesic assay (THA); settings: 1 h; analgesia; pain scores determined 60 minutes after trypsin injection
Protocol: The procedure described by Vinegar et al. in Eur. J] […] The analgesic agents were administered 30 minutes after the administration of trypsin. In addition, a modification of Vinegar's published assay was carried out, comprising the administration of analgesic agent preceding subplantar injectin of trypsin (0.10 ml) of 10% solution of trypsin in pyrogen-free water by 15 minutes. In both THA's, pain scores were determined 60 minutes after trypsin injection. The results of the modification was to increase the sensitivity of the THA to the mild analgesic action of the agents.

rat [3] = experiment: Rat hot plate assay; settings: po, 1 h, administered orally by gavage 60 min prior to testing, protected = no response within 18.3 seconds
From the text: The rat hot plate assay incorporated 2 modifications of the mouse hot plate assay originally described by Eddy et al, J. Pharmacol. Exp. Ther. 98, 121-137 (1950). The first modification was enlargement of the diameter of the cylindrical (water filled) copper plate to 25.0 cm to accommodate rats instead of mice.
The second modification was the use of a temperature controller to regulate a 250 watt infrared heat lamp which was activated via a thermistor probe attached to the undersurface of the top of the copper plate. The surface temperature was thus maintained at 45 + 1.0°C (N=28 measurements of the hot plate temperature under experimental conditions). The time in which a rat placed on the hotplate responded by lifting, shaking or licking either or its hind or forelimbs was recorded in tenths of a second.
Only animals responding in pretest within 6-13 seconds were used in the studies. Drugs were suspended in 0.5% sodium carboxymethylcellulose and administered orally, by gavage, in a volume of 1.00 ml/100 g.b wt. 60 min prior to testing. […] The reaction time of 18.3 seconds represented the sum of the mean protest times of 40 untreated rats plus the time of 3 standard deviations of the mean.ED50's and their standard errors were estimated from a graph of the dose-response curves using the method of Miller and Tainter (Proc.Soc.Exp.Biol.Med. 57, 261-262 (1944). Following this procedure the analgesic activity of the compounds of formula (I) was compared to that of standard analgesic drugs.

| Structure (SMILES) | ED50 (rat [1]) | ED50 [2] | ED50 (rat [3]) |
| --- | --- | --- | --- |
| C[C@@H]1CN(c2ccc3c(c2)OCO3)C(=O)[C@H]1C (relative stereo) [Example 4, trans-1-(1,3-benzodioxol-5-yl)-3,4-dimethyl-pyrrolidin-2-one] | 75 mg/kg | 46 mg/kg | – |
| CC1CC(=O)N(c2ccc3c(c2)OCO3)C1 (stereo not shown) [Example 1, 1-(1,3-benzodioxol-5-yl)-4-melhyl-pyrrolidin-2-one] | 96 mg/kg | 80 mg/kg | 120 mg/kg |
| C=CCOc1ccc(N2CCCC2=O)cc1 [Example 2, 1-(4-allyloxyphenyl)-pyrrolidin-2-one] | 57 mg/kg | – | – |
| O=C(O)CCCNc1ccc2c(c1)OCO2 [Example 5, 4-(1,3-benzodioxol-5-yl)amino butyric acid] | 42 mg/kg | 60 mg/kg | 120 mg/kg |
| COc1ccc(OC)c(N2CCCC2=O)c1 [Example 6, 1-(2,5-dimethoxyphenyl)-pyrrolidin-2-one] | 80 mg/kg | – | – |
| O=C1CCCN1c1ccc2[nH]ncc2c1 [Example 7, 1-(1H-indazol-5-yl)-pyrrolidin-2-one] | 34 mg/kg | 45 mg/kg | 30 mg/kg |
| COc1cc(OC)cc(N2CCCC2=O)c1 [Example 10, 1-(3,5-dimethoxyphenyl)-pyrrolidin-2-one] | 95 mg/kg | – | – |
| CCOc1ccc(N2CCCC2=O)cc1OCC [Example 18, 1-(3,4-diethoxyphenyl)-pyrrolidin-2-one] | 19 mg/kg | – | – |
| CCc1cccc(N2CCCC2=O)c1 [Example 20, 1-(3-ethylphenyl)-pyrrolidin-2-one] | 78 mg/kg | – | – |
| O=C1CCCN1c1ccccn1 [Example 21, 1-(2-pyridyl)-pyrrolidin-2-one] | 41 mg/kg | – | – |
| Cc1cccnc1N1CCCC1=O [Example 24, 1-(3-methyl-2-pyridyl)-pyrrolidin-2-one] | 29 mg/kg | – | – |
| CC1CCN(c2ccc3c(c2)OCO3)C1=O (stereo not shown) [Example 26, 1-(1,3-benzodioxol-5-yl)-3-methyl-pyrrolidin-2-one] | 39 mg/kg | – | – |
| C#CCOc1ccccc1N1CCCC1=O [Example 27, 1-(2-(propyl-yn-yloxy)phenyl)-pyrrolidin-2-one] | 35 mg/kg | 40 mg/kg | – |
| C=CCOc1ccccc1N1CCCC1=O [Example 28, 1-(2-allyloxyphenyl)-pyrrolidin-2-one] | 62 mg/kg | – | 120 mg/kg |
| C#CC(C)Oc1ccccc1N1CCCC1=O (stereo not shown) [Example 31, 1-(2-(1-methyl-prop-2-yn-yl)oxyphenyl)-pyrrolidin-2-one] | 39 mg/kg | – | – |
| O=C(O)COc1ccccc1N1CCCC1=O [Example 37, 2-(2-oxy-1-pyrrolidinyl)phenoxyacetic acid] | 50 mg/kg | – | – |
